Laboratory results taken from patent US10975077B2 (Novira Therapeutics, Inc., priority 2016, dated 2021).

System: HBV (encapsidated HBV DNA, HepG2.2.15 cells)
Assay: HBV replication inhibition assay, BDNA assay in HepG2.2.15 cells
Format: cell-based
How it was run: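 HepG2.2.15 cells (stably integrated HBV, 40,000/well) treated with serially diluted compound in 0.5% DMSO for 6 days, medium and compound refreshed at day 3. DNase-treated supernatant lysed with proteinase K; encapsidated HBV DNA quantified by bDNA, percent inhibition versus DMSO controls, EC50 by nonlinear fit.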

[1] = Hepatitis B virus, HepG2.2.15, Activity in BDNA-assay

Row | SMILES | EC50 [1] | EC50 (Activity in BDNA-assay)
1 | C[C@@H]1Cc2nn3c(c2CN1C(=O)Nc1ccc(F)c(C(F)(F)F)c1)C(=O)N(C)CC(CO)C3 (single isomer, unassigned) [Compound 081_D1, (3R,8S*)—N-(4-fluoro-3-(trifluoromethyl)phenyl)-8-(hydroxymethyl)-3,10-dimethyl-11-oxo-3,4,8,9,10,11-hexahydro-1H-pyrido[4′,3′:3,4]pyrazolo[1,5-a][14]diazepine-2 (7H)-carboxamide] | 1 to 100 nM | –
2 | CN1CC(N)Cn2nc3c(c2C1=O)CN(C(=O)Nc1ccc(F)c(Cl)c1)CC3 (centres unmarked) [Compound 019, 8-amino-N-(3-chloro-4-fluorophenyl)-10-methyl-11-oxo-1,3,4,7,8,9,10,11-octahydro-2H-pyrido[4′,3′:3,4]pyrazolo[1,5-a][1,4]diazepine-2-carboxamide] | 100 to 500 nM | –
3 | CN1CC(CNCC(F)F)Cn2nc3c(c2C1=O)CN(C(=O)Nc1ccc(F)c(Br)c1)CC3 (single isomer, unassigned) [Compound 130_E2, (S*)—N-(3-bromo-4-fluorophenyl)-8-(((2,2-difluoroethyl)amino)methyl)-10-methyl-11-oxo-1,3,4,7,8,9,10,11-octahydro-2H-pyrido[4′,3′:3,4]pyrazolo[1,5-a][1,4]diazepine-2-carboxamide] | – | 1 to 100 nM
4 | C[C@@H]1Cc2nn3c(c2CN1C(=O)Nc1ccc(F)c(Cl)c1)C(=O)N(CC(C)(C)O)CCC3 [Compound 048] | 100 to 500 nM | –
5 | CCC(O)C1CN(C)C(=O)c2c3c(nn2C1)CCN(C(=O)Nc1ccc(F)c(C(F)(F)F)c1)C3 (single isomer, unassigned) [Compound 099_E4, (R*)—N-(4-fluoro-3-(trifluoromethyl)phenyl)-8-((R*)-1-hydroxypropyl)-10-methyl-11-oxo-1,3,4,7,8,9,10,11-octahydro-2H-pyrido[4′,3′:3,4]pyrazolo[1,5-a][1,4]diazepine-2-carboxamide] | – | 100 to 500 nM
6 | CN1CC(CNCC(F)F)Cn2nc3c(c2C1=O)CN(C(=O)Nc1ccc(F)c(C(F)(F)F)c1F)CC3 (single isomer, unassigned) [Compound 131_E1, (R*)—N-(2,4-difluoro-3-(trifluoromethyl)phenyl)-8-(((2,2-difluoroethyl)amino)methyl)-10-methyl-11-oxo-1,3,4,7,8,9,10,11-octahydro-2H-pyrido[4′,3′:3,4]pyrazolo[1,5-a][1,4]diazepine-2-carboxamide] | 100 to 500 nM | –
7 | CN1CC(N2CCOCC2)Cn2nc3c(c2C1=O)CN(C(=O)Nc1ccc(F)c(Cl)c1)CC3 (centres unmarked) [Compound 021, N-(3-chloro-4-fluorophenyl)-10-methyl-8-morpholino-11-oxo-1,3,4,7,8,9,10,11-octahydro-2H-pyrido[4′,3′:3,4]pyrazolo[1,5-a][1,4]diazepine-2-carboxamide] | 100 to 500 nM | –
8 | CN1CC(F)(F)Cn2nc3c(c2C1=O)CN(C(=O)Nc1ccc(F)c(Cl)c1)CC3 [Compound 005, N-(3-chloro-4-fluorophenyl)-8,8-difluoro-10-methyl-11-oxo-1,3,4,7,8,9,10,11-octahydro-2H-pyrido[4′,3′:3,4]pyrazolo[1,5-a][1,4]diazepine-2-carboxamide] | 1 to 100 nM | –
9 | CN1CC(CCO)Cn2nc3c(c2C1=O)CN(C(=O)Nc1ccc(F)c(Cl)c1)CC3 (centres unmarked) [Compound 029] | 100 to 500 nM | –
10 | CCC(O)C1CN(C)C(=O)c2c3c(nn2C1)CCN(C(=O)Nc1ccc(F)c(Cl)c1F)C3 (single isomer, unassigned) [Compound 100_E1, (R*)—N-(3-chloro-2,4-difluorophenyl)-8-((S*)-1-hydroxypropyl)-10-methyl-11-oxo-1,3,4,7,8,9,10,11-octahydro-2H-pyrido[4′,3′:3,4]pyrazolo[1,5-a][1,4]diazepine-2-carboxamide] | 1 to 100 nM | –
11 | CN1CCCn2nc3c(c2C1=O)CN(C(=O)Nc1ccc(F)c(Cl)c1)CC3 [Compound 015, N-(3-chloro-4-fluoro-phenyl)-10-methyl-11-oxo-1,3,4,7,8,9-hexahydropyrido [2,3]pyrazolo[2,4-b][1,4]diazepine-2-carboxamide] | 1 to 100 nM | –
